Assay results reported in ChEMBL document CHEMBL5233246, “CT1-3, a novel magnolol-sulforaphane hybrid suppresses tumorigenesis through inducing mitochondria-mediated apoptosis and inhibiting epithelial mesenchymal transition” (Eur J Med Chem, 2020).
pIC50: −log10 of the molar value. Active and inactive are the calls of the source. The rule behind the calls is not given here.

What was measured:
HONE1 cell line = experiment: Antiproliferative activity against human HONE1 cell line assessed as reduction in cell viability incubated for 24 hrs by CCK-8 assay; assay type: functional, cell-based; conditions: HONE1, 24 h
A549 [1] = experiment: Antiproliferative activity against human A549 cells assessed as reduction in cell viability incubated for 24 hrs by CCK-8 assay; assay type: functional, cell-based; conditions: A549, 24 h
HepG2 = experiment: Antiproliferative activity against human HepG2 cells assessed as reduction in cell viability incubated for 24 hrs by CCK-8 assay; assay type: functional, cell-based; conditions: HepG2, 24 h
MCF7 = experiment: Antiproliferative activity against human MCF7 cells assessed as reduction in cell viability incubated for 24 hrs by CCK-8 assay; assay type: functional, cell-based; conditions: MCF7, 24 h
AGS = experiment: Antiproliferative activity against human AGS cells assessed as reduction in cell viability incubated for 24 hrs by CCK-8 assay; assay type: functional, cell-based
SGC-7901 = experiment: Antiproliferative activity against human SGC-7901 cells assessed as reduction in cell viability incubated for 24 hrs by CCK-8 assay; assay type: functional, cell-based; conditions: SGC-7901, 24 h
LoVo [2] = experiment: Antiproliferative activity against human LoVo cells assessed as reduction in cell viability incubated for 24 hrs by CCK-8 assay; assay type: functional, cell-based
SW480 = experiment: Antiproliferative activity against human SW480 cells assessed as reduction in cell viability incubated for 24 hrs by CCK-8 assay; assay type: functional, cell-based; conditions: SW480, 24 h
NCI-H460 [3] = experiment: Cytotoxicity against human NCI-H460 cells assessed as reduction in cell viability at 10 uM incubated for 8 hr by CCK-8 assay; assay type: functional, cell-based
L02 = experiment: Cytotoxicity against human L02 cells assessed as reduction in cell viability incubated for 8 hrs by CCK-8 assay; assay type: toxicity, cell-based; conditions: l02, 8 h
NCI-H460 [4] = experiment: Inhibition of colony formation in human NCI-H460 cells incubated for 48 hrs by Giemsa staining based microscopy; assay type: functional, cell-based
MDA-MB-231 = experiment: Antitumor activity against human MDA-MB-231 cells xenografted in BALB/c mouse assessed as reduction in tumor growth at 20 mg/kg,ip measured after 28 days; assay type: functional, organism-based; conditions: time 28.0 day
OVCAR-3 = experiment: Antitumor activity against human OVCAR-3 cells xenografted in BALB/c mouse assessed as reduction in tumor growth at 20 mg/kg,ip measured after 28 days; assay type: functional, organism-based; conditions: time 28.0 day
[5] = Toxicity in BALB/c mouse xenografted with human MDA-MB-231 cells assessed as kidney pathological change at 20 mg/kg,ip measured after 28 days; assay type: organism-based; conditions: in vivo, 672 h, time 28 day
A549 [6] = experiment: Induction of apoptosis in human A549 cells assessed as late apoptotic cells at 10 uM incubated for 24 hrs by annexin V-FITC/propidium iodide staining based flow cytometry analysis (reference value: 0.8%); assay type: functional
NCI-H460 [7] = experiment: Induction of apoptosis in human NCI-H460 cells assessed as early apoptotic cells at 10 uM incubated for 24 hrs by annexin V-FITC/propidium iodide staining based flow cytometry analysis (reference value: 0.8%); assay type: functional
NCI-H460 [8] = experiment: Induction of apoptosis in human NCI-H460 cells assessed as necrotic cells at 10 uM incubated for 24 hrs by annexin V-FITC/propidium iodide staining based flow cytometry analysis (reference value: 0.9%); assay type: functional
LoVo [9] = experiment: Induction of apoptosis in human LoVo cells assessed as viable cells at 10 uM incubated for 24 hrs by annexin V-FITC/propidium iodide staining based flow cytometry analysis (reference value: 98%); assay type: functional; conditions: read-out: Activity
LoVo [10] = experiment: Induction of apoptosis in human LoVo cells assessed as early apoptotic cells at 10 uM incubated for 24 hrs by annexin V-FITC/propidium iodide staining based flow cytometry analysis (reference value: 1.3%); assay type: functional
A549 [11] = experiment: Induction of apoptosis in human A549 cells assessed as increase in ROS level at 10 uM incubated for 8 hrs by H2DCFDA staining based fluorescence microscopic assay; assay type: functional, cell-based
LoVo [12] = experiment: Induction of apoptosis in human LoVo cells assessed as increase in ROS level at 10 uM incubated for 8 hrs by H2DCFDA staining based fluorescence microscopic assay; assay type: functional, cell-based
NCI-H460 [13] = experiment: Induction of apoptosis in human NCI-H460 cells assessed as reduction of mitochondrial membrane potential at 10 uM incubated for 8 hrs by JC-1 staining based fluorescence microscopic assay; assay type: functional, cell-based
LoVo [14] = experiment: Induction of apoptosis in human LoVo cells assessed as reduction of mitochondrial membrane potential at 10 uM incubated for 8 hrs by JC-1 staining based fluorescence microscopic assay; assay type: functional, cell-based
LoVo [15] = experiment: Induction of apoptosis in human LoVo cells assessed as decrease in Bcl-2 protein expression level at 7.5 uM incubated for 24 hrs by western blot assay; assay type: functional, cell-based
LoVo [16] = experiment: Induction of apoptosis in human LoVo cells assessed as decrease in XIAP protein expression level at 7.5 uM incubated for 24 hrs by western blot assay; assay type: functional, cell-based
NCI-H460 [17] = experiment: Induction of apoptosis in human NCI-H460 cells assessed as increase in Bax protein expression level at 7.5 uM incubated for 24 hrs by western blot assay; assay type: functional, cell-based
NCI-H460 [18] = experiment: Inhibition of cell migration in human NCI-H460 cells assessed as upregulation of E-cadherin protein expression at 7.5 uM incubated for 24 hrs by western blot analysis; assay type: functional, cell-based

## C=CCc1ccc(O)c(-c2cc(CC=C)ccc2OCC[S+]([O-])CCCCN=C=S)c1 (configuration not stated)
HONE1 cell line
  pIC50: 4.85
A549 [1]
  pIC50: 5.04
HepG2
  pIC50: 5.20
MCF7
  pIC50: 4.90
AGS
  pIC50: 5.10
SGC-7901
  pIC50: 4.94
LoVo [2]
  pIC50: 5.29
SW480
  pIC50: 5.22
NCI-H460 [3]
  Activity: Active
L02
  Activity: Non-Toxic
NCI-H460 [4]
  inhibition: Active
MDA-MB-231
  Activity: Active
OVCAR-3
  Activity: Active
[5]
  Activity: Non-Toxic
A549 [6]
  Activity: 25.7%
NCI-H460 [7]
  Activity: 8.2%
NCI-H460 [8]
  Activity: 3.6%
LoVo [9]
  viability at 10 µM: 22%
LoVo [10]
  Activity: 16.7%
A549 [11]
  Activity: Active
LoVo [12]
  Activity: Active
NCI-H460 [13]
  Activity: Active
LoVo [14]
  Activity: Active
LoVo [15]
  Activity: Active
LoVo [16]
  Activity: Active
NCI-H460 [17]
  Activity: Active
NCI-H460 [18]
  inhibition: Active
